According to US20250213471A1, “PEMETREXED DISODIUM LIQUID COMPOSITION, PREPARATION METHOD THEREFOR AND USE THEREOF” (SHANGHAI AURORA BIOTECHNOLOGY CO., LTD., priority 2022, published 2025):
Values joined by “and” are separate entries in the source; they are usually repeats but may differ in a detail not shown here. Equal values may be shown once.

Columns and labels:
[1] = system: human plasma protein; experiment: Human plasma protein binding rate by equilibrium dialysis; conditions: positive, 5 μM
[2] = system: guinea pigs; experiment: Active systemic anaphylaxis experiment in guinea pigs; conditions: first challenge
Method: The administration doses were 20 m/kg and 40 mg/kg and were about 1.5 and 3 times of the highest clinical intended dose. The day of the first administration was defined as day 1 of the experiment. Sensitization was performed 1 time every other day. 3 consecutive sensitizations were performed (i.e., sensitization on days 1, 3, and 5 of the experiment). On day 14 and day 21 after the last sensitization (i.e., on day 19 and day 26 of the experiment), the guinea pigs were challenged by intravenous injection at 2 times the dose of the sensitization dose, and the systemic reaction and death after the challenge were observed.

[3] = positive control group (8 mg/mL, 0.5 mL/guinea pig sensitization, i.v.)

| Molecule | Binding rate (%) ([1]; human plasma) | Administration side (peak area ratio), Mean [1] | Administration side (peak area ratio), single replicates N = 1-3 [1] | Receiving side (peak area ratio), Mean [1] | Receiving side (peak area ratio), single replicates N = 1-3 [1] | T0 h (peak area ratio), Mean [1] | T0 h (peak area ratio), single replicates N = 1-3 [1] | T5 h (peak area ratio), Mean [1] | T5 h (peak area ratio), single replicates N = 1-3 [1] | Stability (%) ([1]; T5 h vs T0 h) | Time to death of all guinea pigs after challenge administration ([2]; positive control group) [min] | Anaphylaxis Degree of occurrence [2, 3] | Anaphylaxis Incidence (%) [2, 3] [%] | Number of symptoms of anaphylaxis and occurrence proportion: 0 [2, 3] | Number of symptoms of anaphylaxis and occurrence proportion: 1-4 [2, 3] | Number of symptoms of anaphylaxis and occurrence proportion: 5-10 [2, 3] | Number of symptoms of anaphylaxis and occurrence proportion: 11-19 [2, 3] | Number of symptoms of anaphylaxis and occurrence proportion: 20 [2, 3] |
| --- | --- | --- | --- | --- | --- | --- | --- | --- | --- | --- | --- | --- | --- | --- | --- | --- | --- | --- |
| CC(C)NCC(O)COc1cccc2ccccc12 (stereo not drawn) [Propranolol] | 87.27 | 3.774 | 3.835 and 3.690 and 3.798 | 0.480 | 0.486 and 0.480 and 0.475 | 5.286 | 5.491 and 5.043 and 5.325 | 4.896 | 4.909 and 4.831 and 4.947 | 92.61 | – | – | – | – | – | – | – | – |
| Positive control: 8 mg/mL egg white albumin solution, positive control of the anaphylaxis experiment (protein, UniProt P01012 2-386, looked up) Ovalbumin: GSIGAASMEFCFDVFKELKVHHANENIFYCPIAIMSALAMVYLGAKDSTRTQINKVVRFDKLPGFGDSIEAQCGTSVNVHSSLRDILNQITKPNDVYSFSLASRLYAEERYPILPEYLQCVKELYRGGLEPINFQTAADQARELINSWVESQTNGIIRNVLQPSSVDSQTAMVLVNAIVFKGLWEKAFKDEDTQAMPFRVTEQESKPVQMMYQIGLFRVASMASEKMKILELPFASGTMSMLVLLPDEVSGLEQLESIINFEKLTEWTSSNVMEERKIKVYLPRMKMEEKYNLTSVLMAMGITDVFSSSANLSGISSAESLKISQAVHAAHAEINEAGREVVGSAEAGVDAASVSEEFRADHPFLFCIKHIATNAVLFFGRCVSP | – | – | – | – | – | – | – | – | – | – | ≤ 7 | extremely positive | 100 | 0 | 0 | 0 | 0 | 6/6 |
